Data: patent US6075006A, “Soluble tachykinin antagonists, the preparation and use thereof” (Centro Interuniversitario di Ricera Sui Peptidi …, priority 1996, dated 2000)
Converted amounts (≈) assume the structure as drawn. Where two headings read alike, the source gives them in different places. Bridge positions count the residues as written; N and C are the ends. Square brackets hold non-standard residues; d marks the D form. Peptide text beside a SMILES is read from it. * marks the point of attachment. βGal = OC[C@H]1O[C@@H](*)[C@H](O)[C@@H](O)[C@H]1O; X1 = OC[C@H]1O[C@@H](N*)[C@H](O)[C@@H](O)[C@H]1O; Dap = NC[C@H](N)C(=O)O

Legend:
[1] = Water solubility; format: physicochemical; settings: table of example 2
[2] = water solubility of known insoluble antagonists, stated in the description; cited from earlier work

| Solubility [1] [µg/mL] | Compound | Solubility [2] [µg/mL] |
| --- | --- | --- |
| 1.800 (≈ 2.01 µM) | CC(C)C[C@@H]1NC(=O)[C@@H]2CNC(=O)C[C@H](NC(=O)[C@H](CS[C@@H]3O[C@H](CO)[C@H](O)[C@H](O)[C@H]3O)NC1=O)C(=O)N[C@@H](Cc1c[nH]c3ccccc13)C(=O)N[C@@H](Cc1ccccc1)C(=O)N2 [Example 1, cyclo[Cys^1 (β-D-Gal)-Asp^2 -Trp^3 -Phe^4 -Dap^5 -Leu^6]cyclo(2β-5β)] (cyclo(C(βGal)DWF[Dap]L); lactam 2-5) |  |
| 2.020 (≈ 2.3 µM) | CC(C)C[C@@H]1NC(=O)[C@@H]2CNC(=O)C[C@H](NC(=O)[C@H](CO[C@@H]3O[C@H](CO)[C@H](O)[C@H](O)[C@H]3O)NC1=O)C(=O)N[C@@H](Cc1c[nH]c3ccccc13)C(=O)N[C@@H](Cc1ccccc1)C(=O)N2 [Comparative example 1, cyclo[Ser^1 (β-D-Gal)-Asp^2 -Trp^3 -Phe^4 -Dap^5 -Leu^6]cyclo(2β-5β)] (cyclo(DWF[Dap]LS(βGal)); lactam 1-4) |  |
| 15 (≈ 19.7 µM) | CSCC[C@@H]1NC(=O)[C@H](CC(C)C)NC(=O)[C@@H]2CNC(=O)C[C@H](NC1=O)C(=O)N[C@@H](Cc1c[nH]c3ccccc13)C(=O)N[C@@H](Cc1ccccc1)C(=O)N2 [MEN 10627] (cyclo(DWF[Dap]LM); lactam 1-4) | 15 (≈ 19.7 µM) |
| 1.980 (≈ 2.19 µM) | CC(C)C[C@@H]1NC(=O)[C@@H]2CNC(=O)C[C@H](NC(=O)[C@H](CC(=O)N[C@@H]3O[C@H](CO)[C@H](O)[C@H](O)[C@H]3O)NC1=O)C(=O)N[C@@H](Cc1c[nH]c3ccccc13)C(=O)N[C@@H](Cc1ccccc1)C(=O)N2 [Comparative example 2, cyclo[Asn^1 (β-D-Gal)-Asp^2 -Trp^3 -Phe^4 -Dap^5 -Leu^6]cyclo(2β-5β)] (cyclo(D(X1)DWF[Dap]L); lactam 2-5) |  |
